Experimental data as given in PMC7466059, “Synthesis and Ex Vivo Trans-Corneal Permeation of Penetratin Analogues as Ophthalmic Carriers: Preliminary Results” (Pharmaceutics, 2020).
Read-outs that look alike come from different tables or passages of the source. Marks after values point to notes of the source that are not given here. Peptide text beside a SMILES is read from it. * marks the point of attachment. 5FAM = O=C1OC2(c3ccc(O)cc3Oc3cc(O)ccc32)c2ccc(C(=O)*)cc21

What was measured:
[1] = FAM alone, trans-corneal; cited from earlier work
Excerpt: Finally, also the propensity of CPPs to enter corneal epithelium and endothelium cells should be considered.

[2] = Ex vivo trans-corneal permeation, Franz-type diffusion cells; assay type: in vitro ADME, pig; conditions: ex vivo porcine cornea, area 0.2 cm^2, 37 °C, 6 h, fluorescence 485/535 nm, mean ± sd
Method: (§1) Permeation experiments across freshly porcine cornea were performed following a method previously reported. In detail, transparent porcine corneas were isolated from fresh pig eyes (breed: Large White and Landrace; weight: 145–190 kg; age: 10–11 months; sex: female and male; Macello Annoni SpA, Busseto, Italy) and supported by glass Franz-type diffusion cells, having a permeation area of 0.2 cm^2. The epithelial side was in contact with the donor, i.e., 200 µL of aqueous solution containing a peptide: each concentration and solvent are indicated in Table 2. Donor concentrations were selected based on different solubility and analytical sensitivity (see paragraph 2.4 and Table S2). For some peptides, the solubilization was improved by dissolving the raw material using small amount of DMSO (final concentration less than 5% v/v), and then PBS or PBS+0.1% BSA were alternately added.
To fill the receptor compartment, around 4 mL of degassed PBS or PBS+0.1% BSA was used (see Table 2), being kept at 37 °C and maintained under magnetic stirring to avoid any boundary layer effect. The presence of 0.1% BSA aids in preventing peptides aggregation. Permeation experiments lasted 6 h, and for quantification purposes, 200 µL of the receiving solution were collected every hour and reintegrated with fresh medium. Each condition was replicated between 3 and 4 times, using cornea isolated from different animals.
Permeation samples were analysed without preliminary separation by fluorescence, using a Spark 10M microplate reader (Tecan Trading AG, Switzerland); excitation and emission wavelengths were 485 nm and 535 nm, respectively. Standard solutions were prepared in PBS pH 7.4 or in PBS containing BSA 0.1%. RSD% (relative standard deviation %) was lower than 10%, while ER% (relative error %) resulted lower than 15%.
The amount of CPP permeated across the cornea (nmol/cm^2) is plotted against time (hour): the slope of the regression line at steady state represents the trans-corneal flux J (nmol/cm^2 h). The apparent permeability coefficient Papp (cm/s) is then calculated as Equation (1): Papp = J/c(1) being c (µM) the concentration of the donor solution. Papp allows for a direct comparison among permeants studied using different donor concentrations.

[3] = Aqueous solubility / precipitation of donor solutions (observation); assay type: physicochemical; conditions: for solubilization of donor solution: 250 µM, PBS pH 7.4; for solubility in aqueous medium: fluorescein (FL) as cargo, not used in ex vivo permeation experiments
Method: as §1
We have also analysed if the sequence reciprocity (GG vs. R) plays a role in the diffusivity of the peptide across the cornea and we found no difference between most of the paired sequences, namely PNT-GG 2 vs. PNT-R 4, PNT-GG 3 vs. PNT-R 3, PNT-GG 4 vs. PNT-R 2, PNT-GG 5 vs. PNT-R 1 (Figure 3b). This confirms that the sequence is only one of the factors affecting the translocation: in fact, even CPP concentration, type of cells, and cargo can strongly influence CPP final behavior/activity. […] Differently, the presence of FAM, a more hydrophilic fluorescent probe, allowed for aqueous solutions ranging in concentration from 25 to 250 µM (Table 2).

[4] = donor 100 µM, 200 µL, donor and receiving solutions PBS+BSA 0.1% pH 7.4, n = 3
[5] = donor 25 µM, 200 µL, donor and receiving solutions PBS pH 7.4, n = 4
[6] = donor 250 µM, 200 µL, donor and receiving solutions PBS pH 7.4, n = 3-4

## 5(6)-Carboxyfluorescein [FAM]
[1]
  Papp (apparent permeability coefficient): 0.29 ± 0.08 × 10^−6 cm/s

## CSCC[C@H](NC(=O)[C@H](CCCNC(=N)N)NC(=O)[C@H](CCCNC(=N)N)NC(=O)[C@H](CC(N)=O)NC(=O)CNC(=O)CNC(=O)c1ccc2c(c1)C(=O)OC21c2ccc(O)cc2Oc2cc(O)ccc21)C(=O)N[C@@H](CCCCN)C(=O)N[C@@H](Cc1c[nH]c2ccccc12)C(=O)N[C@@H](CCCCN)C(=O)N[C@@H](CCCCN)C(N)=O [PNT-GG 1] (5FAM-GGNRRMKWKK-NH2)
[2]; epithelial side to donor, donor 100 µM, 200 µL, donor and receiving solutions PBS pH 7.4, hourly sampling, n = 3-4
  Papp (apparent permeability coefficient): 1.33 ± 0.11 × 10^−6 cm/s

## CSCC[C@H](NC(=O)[C@H](CCCNC(=N)N)NC(=O)[C@H](CCCNC(=N)N)NC(=O)[C@H](CC(N)=O)NC(=O)[C@H](CCC(N)=O)NC(=O)[C@H](Cc1ccccc1)NC(=O)CNC(=O)CNC(=O)c1ccc2c(c1)C(=O)OC21c2ccc(O)cc2Oc2cc(O)ccc21)C(=O)N[C@@H](CCCCN)C(=O)N[C@@H](Cc1c[nH]c2ccccc12)C(N)=O [PNT-GG 2] (5FAM-GGFQNRRMKW-NH2)
[2]; [4]
  Papp (apparent permeability coefficient): 0.55 ± 0.57 × 10^−6 cm/s

## CC[C@H](C)[C@H](NC(=O)CNC(=O)CNC(=O)c1ccc2c(c1)C(=O)OC21c2ccc(O)cc2Oc2cc(O)ccc21)C(=O)N[C@@H](Cc1c[nH]c2ccccc12)C(=O)N[C@@H](Cc1ccccc1)C(=O)N[C@@H](CCC(N)=O)C(=O)N[C@@H](CC(N)=O)C(=O)N[C@@H](CCCNC(=N)N)C(=O)N[C@@H](CCCNC(=N)N)C(=O)N[C@@H](CCSC)C(N)=O [PNT-GG 3] (5FAM-GGIWFQNRRM-NH2)
[2]; [4]
  Papp (apparent permeability coefficient): 0.44 ± 0.50 × 10^−6 cm/s

## CC[C@H](C)[C@H](NC(=O)CNC(=O)CNC(=O)c1ccc2c(c1)C(=O)OC21c2ccc(O)cc2Oc2cc(O)ccc21)C(=O)N[C@@H](CCCCN)C(=O)N[C@H](C(=O)N[C@@H](Cc1c[nH]c2ccccc12)C(=O)N[C@@H](Cc1ccccc1)C(=O)N[C@@H](CCC(N)=O)C(=O)N[C@@H](CC(N)=O)C(=O)N[C@@H](CCCNC(=N)N)C(N)=O)[C@@H](C)CC [PNT-GG 4] (5FAM-GGIKIWFQNR-NH2)
[2]; [4]
  Papp (apparent permeability coefficient): 0.34 ± 0.14 × 10^−6 cm/s

## CC[C@H](C)[C@H](NC(=O)[C@H](CCCCN)NC(=O)[C@@H](NC(=O)[C@H](CCC(N)=O)NC(=O)[C@H](CCCNC(=N)N)NC(=O)CNC(=O)CNC(=O)c1ccc2c(c1)C(=O)OC21c2ccc(O)cc2Oc2cc(O)ccc21)[C@@H](C)CC)C(=O)N[C@@H](Cc1c[nH]c2ccccc12)C(=O)N[C@@H](Cc1ccccc1)C(=O)N[C@@H](CCC(N)=O)C(N)=O [PNT-GG 5] (5FAM-GGRQIKIWFQ-NH2)
[2]; donor 100 µM in PBS pH 7.4, receiving solution PBS+BSA 0.1% pH 7.4, n = 3
  Papp (apparent permeability coefficient): 0.50 ± 0.70 ^d × 10^−6 cm/s
[2]; [4]
  Papp (apparent permeability coefficient): 0.24 ± 0.40 ^d × 10^−6 cm/s

## CC[C@H](C)[C@H](NC(=O)[C@H](CCCCN)NC(=O)[C@@H](NC(=O)[C@H](CCC(N)=O)NC(=O)[C@H](CCCNC(=N)N)NC(=O)CNC(=O)CNC(=O)c1ccc2c(c1)C(=O)OC21c2ccc(O)cc2Oc2cc(O)ccc21)[C@@H](C)CC)C(=O)N[C@@H](Cc1c[nH]c2ccccc12)C(=O)N[C@@H](Cc1ccccc1)C(=O)N[C@@H](CCC(N)=O)C(=O)N[C@@H](CC(N)=O)C(=O)N[C@@H](CCCNC(=N)N)C(=O)N[C@@H](CCCNC(=N)N)C(=O)N[C@@H](CCSC)C(=O)N[C@@H](CCCCN)C(=O)N[C@@H](Cc1c[nH]c2ccccc12)C(=O)N[C@@H](CCCCN)C(=O)N[C@@H](CCCCN)C(N)=O [PNT-GG]
[2]; [5]
  Papp (apparent permeability coefficient): 4.41 ± 2.93 × 10^−6 cm/s
[3]
  solubilization of donor solution: complete solubilization

## CC[C@H](C)[C@H](NC(=O)[C@H](CCCCN)NC(=O)[C@@H](NC(=O)[C@H](Cc1c[nH]c2ccccc12)NC(=O)[C@H](Cc1ccccc1)NC(=O)[C@H](CCC(N)=O)NC(=O)CNC(=O)CNC(=O)c1ccc2c(c1)C(=O)OC21c2ccc(O)cc2Oc2cc(O)ccc21)[C@@H](C)CC)C(=O)N[C@@H](CCC(N)=O)C(=O)N[C@@H](CCCNC(=N)N)C(N)=O [PNT-R 1] (5FAM-GGQFWIKIQR-NH2)
[2]; [6]
  Papp (apparent permeability coefficient): 0.93 ± 0.53 × 10^−6 cm/s

## CC[C@H](C)[C@H](NC(=O)[C@H](CCCCN)NC(=O)[C@@H](NC(=O)[C@H](Cc1c[nH]c2ccccc12)NC(=O)[C@H](Cc1ccccc1)NC(=O)[C@H](CCC(N)=O)NC(=O)[C@H](CC(N)=O)NC(=O)[C@H](CCCNC(=N)N)NC(=O)CNC(=O)CNC(=O)c1ccc2c(c1)C(=O)OC21c2ccc(O)cc2Oc2cc(O)ccc21)[C@@H](C)CC)C(N)=O [PNT-R 2] (5FAM-GGRNQFWIKI-NH2)
[2]; [6]
  Papp (apparent permeability coefficient): 0.23 ± 0.16 × 10^−6 cm/s

## CC[C@H](C)[C@H](NC(=O)[C@H](Cc1c[nH]c2ccccc12)NC(=O)[C@H](Cc1ccccc1)NC(=O)[C@H](CCC(N)=O)NC(=O)[C@H](CC(N)=O)NC(=O)[C@H](CCCNC(=N)N)NC(=O)[C@H](CCCNC(=N)N)NC(=O)[C@H](CCSC)NC(=O)CNC(=O)CNC(=O)c1ccc2c(c1)C(=O)OC21c2ccc(O)cc2Oc2cc(O)ccc21)C(N)=O [PNT-R 3] (5FAM-GGMRRNQFWI-NH2)
[2]; [6]
  Papp (apparent permeability coefficient): 0.002 ± 0.004 × 10^−6 cm/s

## CSCC[C@H](NC(=O)[C@H](CCCCN)NC(=O)[C@H](Cc1c[nH]c2ccccc12)NC(=O)CNC(=O)CNC(=O)c1ccc2c(c1)C(=O)OC21c2ccc(O)cc2Oc2cc(O)ccc21)C(=O)N[C@@H](CCCNC(=N)N)C(=O)N[C@@H](CCCNC(=N)N)C(=O)N[C@@H](CC(N)=O)C(=O)N[C@@H](CCC(N)=O)C(=O)N[C@@H](Cc1ccccc1)C(N)=O [PNT-R 4] (5FAM-GGWKMRRNQF-NH2)
[2]; [6]
  Papp (apparent permeability coefficient): 0.13 ± 0.07 × 10^−6 cm/s

## CSCC[C@H](NC(=O)[C@H](CCCCN)NC(=O)[C@H](Cc1c[nH]c2ccccc12)NC(=O)[C@H](CCCCN)NC(=O)[C@H](CCCCN)NC(=O)CNC(=O)CNC(=O)c1ccc2c(c1)C(=O)OC21c2ccc(O)cc2Oc2cc(O)ccc21)C(=O)N[C@@H](CCCNC(=N)N)C(=O)N[C@@H](CCCNC(=N)N)C(=O)N[C@@H](CC(N)=O)C(N)=O [PNT-R 5] (5FAM-GGKKWKMRRN-NH2)
[2]; [6]
  Papp (apparent permeability coefficient): 0.05 ± 0.01 × 10^−6 cm/s

## CC[C@H](C)[C@H](NC(=O)[C@H](CCCCN)NC(=O)[C@@H](NC(=O)[C@H](Cc1c[nH]c2ccccc12)NC(=O)[C@H](Cc1ccccc1)NC(=O)[C@H](CCC(N)=O)NC(=O)[C@H](CC(N)=O)NC(=O)[C@H](CCCNC(=N)N)NC(=O)[C@H](CCCNC(=N)N)NC(=O)[C@H](CCSC)NC(=O)[C@H](CCCCN)NC(=O)[C@H](Cc1c[nH]c2ccccc12)NC(=O)[C@H](CCCCN)NC(=O)[C@H](CCCCN)NC(=O)CNC(=O)CNC(=O)c1ccc2c(c1)C(=O)OC21c2ccc(O)cc2Oc2cc(O)ccc21)[C@@H](C)CC)C(=O)N[C@@H](CCC(N)=O)C(=O)N[C@@H](CCCNC(=N)N)C(N)=O [PNT-R] (5FAM-GGKKWKMRRNQFWIKIQR-NH2)
[2]; [5]
  Papp (apparent permeability coefficient): 7.08 ± 6.66 × 10^−6 cm/s
[3]
  solubilization of donor solution: complete solubilization

## FL-GG-KKWKMRRNQFWIKIQR [PNT-R-FL, fluorescein-GG-labelled reversed penetratin, C-terminal amide]
[3]
  solubility in aqueous medium: poorly soluble

## FL-GG-WKMRRNQF [PNT-R-4-FL, fluorescein-GG-labelled analogue of PNT-R 4, C-terminal amide]
[3]
  solubility in aqueous medium: poorly soluble
